From BindingDB's records for doi:10.1016/s0960-894x(99)00213-9 (Cardiff University, 1999)

Tests used:
[1] = target: Dihydrofolate reductase (Trypanosoma cruzi); test: Inhibitory activity against Trypanosoma cruzi dihydrofolate reductase
[2] = target: Dihydrofolate reductase (Trypanosoma cruzi); test: as above; remark: listed apart in the source

Row | Compound | Ki [1] | Ki [2]
1 | CCOC(=O)CCCCN(Cc1cnc2nc(N)nc(N)c2n1)c1ccc(C(=O)NC(CCC(=O)OCC)C(=O)OCC)cc1 (centres undefined) [2-{4-[(2,4-Diamino-pteridin-6-ylmethyl)-(4-ethoxycarbonyl-butyl)-amino]-benzoylamino}-pentanedioic acid diethyl ester] | 46 nM | 
2 | CCOC(=O)CCCCCN(Cc1cnc2nc(N)nc(N)c2n1)c1ccc(C(=O)NC(CCC(=O)OCC)C(=O)OCC)cc1 (centres undefined) [2-{4-[(2,4-Diamino-pteridin-6-ylmethyl)-(5-ethoxycarbonyl-pentyl)-amino]-benzoylamino}-pentanedioic acid diethyl ester] | 56 nM | 
3 | Nc1nc(N)c2nc(CN(CCCCC(=O)O)c3ccc(C(=O)NC(CCC(=O)O)C(=O)O)cc3)cnc2n1 (centres undefined) [2-{4-[(4-Carboxy-butyl)-(2,4-diamino-pteridin-6-ylmethyl)-amino]-benzoylamino}-pentanedioic acid] | 0.131 nM | 
4 | Nc1nc(N)c2nc(CN(CCCCCC(=O)O)c3ccc(C(=O)NC(CCC(=O)O)C(=O)O)cc3)cnc2n1 (centres undefined) [2-{4-[(5-Carboxy-pentyl)-(2,4-diamino-pteridin-6-ylmethyl)-amino]-benzoylamino}-pentanedioic acid] |  | 0.183 nM
